Molecular target: mGluR4 (UniProt Q14833)
Assay: mGluR4 potentiation assay: increase in response to an EC20 concentration of agonist (species not given)
Format: cell-based
Conditions: EC50 for potentiation of mGluR4; table does not state human or rat
Experimental: The disclosed compounds and compositions can be evaluated for their ability to act as a potentiator of metabotropic glutamate receptor activity, in particular mGluR4 activity, by any suitable known methodology known in the art. For example, Chinese Hamster Ovary (CHO) cells transfected with human mGluR4 or […] co-transfected with rat mGluR4 and the G-protein regulated Inwardly Rectifying Potassium channel (GIRK) were plated in clear bottom assay plates for assay in a Hamamatsu FDSS Fluorometric Plate Reader. The cells were loaded with either a Ca2+-sensitive fluorescent dye or the thallium responsive dye and the plates were washed and placed into a suitable kinetic plate reader. For human mGluR4 assays, a fluorescence baseline was established for 3-5 seconds, the disclosed compounds were then added to the cells, and the response in cells was measured. Approximately two and a half minutes later, a concentration of mGluR4 orthosteric agonist (e.g. glutamate or L-AP4) eliciting approximately 20% (EC20) of the maximal agonist response was added to the cells, and the response was measured. Two minutes later, a concentration of mGluR4 agonist (e.g. glutamate or L-AP4) eliciting 80% (EC80) of the maximal agonist response was added to the cells, and the response was measured. For rat mGluR4/GIRK experiments, a baseline was established for approximately five seconds, disclosed compounds were added, and either an EC20 or EC80 concentration of agonist was added approximately two and one half minutes later. Potentiation of the agonist response of mGluR4 by the disclosed compounds was observed as an increase in response to the EC20 concentration of agonist in the presence of compound compared to the response to agonist in the absence of compound. Similarly, antagonism of the agonist response of mGluR4 by the disclosed compounds was observed as a decrease in response to the EC80 concentration of agonist in the presence of compound compared to the response to agonist in the absence of compound.
The above described assay operated in two modes. In the first mode, a range of concentrations of the disclosed compounds are added to cells, followed by a single fixed concentration of agonist. If the compound acts as a potentiator, an EC50 value for potentiation and a maximum extent of potentiation by the compound at this concentration of agonist is determined by non-linear curve fitting. If the compound acts as a noncompetitive antagonist, an IC50 value is determined by non-linear curve fitting. In the second mode, several fixed concentrations of the disclosed compounds are added to various wells on a plate, followed by a range in concentrations of agonist for each concentration of disclosed compound. The EC50 values for the agonist at each concentration of compound are determined by non-linear curve fitting. A decrease in the EC50 value of the agonist with increasing concentrations of the sample compound (a leftward shift of the agonist concentration-response curve) is an indication of the degree of mGluR4 potentiation at a given concentration of the sample compound. A decrease in the maximal response of the agonist with increasing concentrations of the sample compounds, with or without a rightward shift in agonist potency, is an indication of the degree of noncompetitive antagonism at mGluR4. The second mode also indicates whether the sample compounds also affect the maximum response to mGluR4 to agonists.
These compounds are positive allosteric modulators (potentiators) of human and rat mGluR4 and were selective for mGluR4 compared to the other seven subtypes of metabotropic glutamate receptors.

Compound	EC50 [nM]
Cc1cc(Cn2cc3ncc(Nc4n[nH]c5nccnc45)cc3n2)no1 [Example 145, N-(2-((5-methylisoxazol-3-yl)methyl)-2H-pyrazolo[4,3-b]pyridin-6-yl)-1H-pyrazolo[3,4-b]pyrazin-3-amine]	> 10000
CC(=O)c1nn(C)c2cc(Nc3n[nH]c4cccnc34)ccc12 [Example 21, 1-(6-((1H-pyrazolo[4,3-b]pyridin-3-yl)amino)-1-methyl-1H-indazol-3-yl)ethan-1-one]	764
Cn1nc(C(=O)N2CCCC2)c2ccc(Nc3n[nH]c4cccnc34)cc21 [Example 173, [1-methyl-6-(1H-pyrazolo[4,3-b]pyridin-3-ylamino)indazol-3-yl]-pyrrolidin-1-yl-methanone]	825
Cn1ncc2cc(Nc3n[nH]c4cccnc34)cnc21 [Example 151, N-(1-methyl-1H-pyrazolo[3,4-b]pyridin-5-yl)-1H-pyrazolo[4,3-b]pyridin-3-amine]	582
CCC(F)(F)Cn1nc(C)c2cc(Nc3n[nH]c4ncccc34)ccc21 [Example 137, N-(1-(2,2-difluorobutyl)-3-methyl-1H-indazol-5-yl)-1H-pyrazolo[3,4-b]pyridin-3-amine]	436
Cn1nc(C(=O)N2CCC(F)(F)CC2)c2ccc(Nc3n[nH]c4cccnc34)cc21 [Example 162, (4,4-difluoro-1-piperidyl)-[1-methyl-6-(1H-pyrazolo[4,3-b]pyridin-3-ylamino)indazol-3-yl]methanone]	498
Cn1nc(C(=O)NCCCS(C)(=O)=O)c2ccc(Nc3n[nH]c4cccnc34)cc21 [Example 169, 1-methyl-N-(3-methylsulfonylpropyl)-6-(1H-pyrazolo[4,3-b]pyridin-3-ylamino)indazole-3-carboxamide]	4610
CCn1nc(Cl)c2cc(Nc3n[nH]c4cccnc34)ccc21 [Example 141, N-(3-chloro-1-ethyl-1H-indazol-5-yl)-1H-pyrazolo[4,3-b]pyridin-3-amine]	815
CCC(C)n1nc(C)c2cc(Nc3n[nH]c4cccnc34)ccc21 (stereo not shown) [Example 102, N-(1-(sec-butyl)-3-methyl-1H-indazol-5-yl)-1H-pyrazolo[4,3-b]pyridin-3-amine]	367
FC1(F)CC(Cn2nc(Cl)c3cc(Nc4n[nH]c5cccnc45)ccc32)C1 [Example 287, N-(3-chloro-1-((3,3-difluorocyclobutyl)methyl)-1H-indazol-5-yl)-1H-pyrazolo[4,3-b]pyridin-3-amine]	2990
CC(C)Oc1nn(C)c2cc(Nc3n[nH]c4cccnc34)ccc12 [Example 44, N-(3-isopropoxy-1-methyl-1H-indazol-6-yl)-1H-pyrazolo[4,3-b]pyridin-3-amine]	413
CC(C)Cn1nc(Cl)c2cc(Nc3n[nH]c4cccnc34)ccc21 [Example 274, N-(3-chloro-1-isobutyl-1H-indazol-5-yl)-1H-pyrazolo[4,3-b]pyridin-3-amine]	3020
Cc1nn(CC(C)(C)C)c2ccc(Nc3n[nH]c4cccnc34)cc12 [Example 119, N-(3-methyl-1-neopentyl-1H-indazol-5-yl)-1H-pyrazolo[4,3-b]pyridin-3-amine]	295
Cc1cc(Cn2cc3ncc(Nc4n[nH]c5cccnc45)cc3n2)no1 [Example 144, N-(2-((5-methylisoxazol-3-yl)methyl)-2H-pyrazolo[4,3-b]pyridin-6-yl)-1H-pyrazolo[4,3-b]pyridin-3-amine]	> 10000
c1cnc2c(Nc3cccc4c3cnn4CC3CCC3)n[nH]c2c1 [Example 34, N-(1-(cyclobutylmethyl)-1H-indazol-4-yl)-1H-pyrazolo[4,3-b]pyridin-3-amine]	4300
Cn1nc(C(=O)N2CCCC(F)(F)C2)c2ccc(Nc3n[nH]c4cccnc34)cc21 [Example 160, (3,3-difluoro-1-piperidyl)-[1-methyl-6-(1H-pyrazolo[4,3-b]pyridin-3-ylamino)indazol-3-yl]methanone]	888
Cn1nc(S(C)(=O)=O)c2ccc(Nc3n[nH]c4nccnc34)cc21 [Example 187, N-(1-methyl-3-(methylsulfonyl)-1H-indazol-6-yl)-1H-pyrazolo[3,4-b]pyrazin-3-amine]	2360
Cc1cncc(-c2nn(C)c3cc(Nc4n[nH]c5cccnc45)ccc23)c1 [Example 178, N-(1-methyl-3-(5-methylpyridin-3-yl)-1H-indazol-6-yl)-1H-pyrazolo[4,3-b]pyridin-3-amine]	4180
Cc1nn(C2CCCC2)c2ncc(Nc3n[nH]c4cccnc34)cc12 [Example 254, 1-cyclopentyl-3-methyl-N-(1H-pyrazolo[4,3-b]pyridin-3-yl)pyrazolo[3,4-b]pyridin-5-amine]	> 10000
Cn1ncc2ncc(Nc3n[nH]c4cccnc34)cc21 [Example 147, N-(1-methyl-1H-pyrazolo[4,3-b]pyridin-6-yl)-1H-pyrazolo[4,3-b]pyridin-3-amine]	1260
Cn1nc(-c2ccncc2)c2ccc(Nc3n[nH]c4cccnc34)cc21 [Example 218, N-[1-methyl-3-(4-pyridyl)indazol-6-yl]-1H-pyrazolo[4,3-b]pyridin-3-amine]	871
Cn1ncc2c(Nc3n[nH]c4cccnc34)cccc21 [Example 33, N-(1-methyl-1H-indazol-4-yl)-1H-pyrazolo[4,3-b]pyridin-3-amine]	> 10000
Cn1ncc2cc(Nc3n[nH]c4nccnc34)ccc21 [Example 84]	818

The next molecules have a lower EC50 than those just listed; values first:

EC50 [nM]	Compound
185	Cn1nc(OC2CCS(=O)(=O)CC2)c2ccc(Nc3n[nH]c4cccnc34)cc21 [Example 192, N-[3-(1,1-dioxothian-4-yl)oxy-1-methyl-indazol-6-yl]-1H-pyrazolo[4,3-b]pyridin-3-amine]
167	c1cnc2c(Nc3ccc4c(cnn4CC4CCC4)c3)n[nH]c2c1 [Example 80, N-(1-(cyclobutylmethyl)-1H-indazol-5-yl)-1H-pyrazolo[4,3-b]pyridin-3-amine]
144	Cc1nn(CC2CC(C(C)C)=NO2)c2ccc(Nc3n[nH]c4cccnc34)cc12 (stereo not shown) [Example 120, N-(1-((3-isopropyl-4,5-dihydroisoxazol-5-yl)methyl)-3-methyl-1H-indazol-5-yl)-1H-pyrazolo[4,3-b]pyridin-3-amine]
95	Cc1nn(CC(C)C)c2ccc(Nc3n[nH]c4cccnc34)cc12 [Example 112, N-(1-isobutyl-3-methyl-1H-indazol-5-yl)-1H-pyrazolo[4,3-b]pyridin-3-amine]
78	Cc1nn(C)c2cc(Nc3n[nH]c4cccnc34)ccc12 [Example 15, N-(1,3-dimethyl-1H-indazol-6-yl)-1H-pyrazolo[4,3-b]pyridin-3-amine]
63	Cc1cc(Cn2nc(C)c3cc(Nc4n[nH]c5cccnc45)ccc32)on1 [Example 130, N-(3-methyl-1-((3-methylisoxazol-5-yl)methyl)-1H-indazol-5-yl)-1H-pyrazolo[4,3-b]pyridin-3-amine]
51.4	c1ccc2c(Nc3ccc4c(cnn4CC4CCC4)c3)n[nH]c2c1 [Example 86, N-(1-(cyclobutylmethyl)-1H-indazol-5-yl)-1H-indazol-3-amine]
51	Cc1cc(Cn2nc(C)c3cc(Nc4n[nH]c5cccnc45)ccc32)no1 [Example 76, N-(3-methyl-1-((5-methylisoxazol-3-yl)methyl)-1H-indazol-5-yl)-1H-pyrazolo[4,3-b]pyridin-3-amine]
49	C=C(C)Cn1nc(C)c2cc(Nc3n[nH]c4cccnc34)ccc21 [Example 122, N-(3-methyl-1-(2-methylallyl)-1H-indazol-5-yl)-1H-pyrazolo[4,3-b]pyridin-3-amine]
43	Cn1nc(C2CC2)c2ccc(Nc3n[nH]c4ncccc34)cc21 [Example 13, N-(3-cyclopropyl-1-methyl-1H-indazol-6-yl)-1H-pyrazolo[3,4-b]pyridin-3-amine]
43	Cn1nc(C2CC2)c2ccc(Nc3n[nH]c4cccnc34)cc21 [Example 1, N-(3-cyclopropyl-1-methyl-1H-indazol-6-yl)-1H-pyrazolo[4,3-b]pyridin-3-amine]

Source: US10526323B2, “Indazole and azaindazole substituted compounds as mGluR4 allosteric potentiators, compositions, and methods of treating neurological dysfunction” (Vanderbilt University, priority 2015, dated 2020)
